From US12139488B2, “Pyrido[3,2-d]pyrimidine compounds uses thereof for treating a proliferative disease” (Universite de Montreal, priority 2021, dated 2024)

Tested on: pERK in HCT-116 cells (KRAS G13D)
Assay: Phospho-ERK inhibition (AlphaLISA SureFire Ultra p-ERK 1/2), HCT116
Assay type: cell-based, human
Details: HCT116 cells; for HCT116 pERK Ymin %: Ymin in brackets
Experimental: All cancer cell lines (A375, A101D, A2058, RKO, HT29 SK-MEL 30, IPC298, HepG2, HCT-116, Lovo, SWV620, SW480, NCI-H358, NCI-H2122, Calu-6, NCIH2087, NCIH1755, NCIH1666 and Mewo) were obtained from ATCC and cultured in RPMI-1640 medium (Gibco) supplemented with 5% heat inactivated fetal bovine serum (FBS, Wisent) at 37° C. under 5% CO2. Cells were maintained in T175 flasks (Greiner). They were passaged by removing the culture medium, washing once in 10 mL of room temperature Phosphate Buffered Saline (PBS; Wisent) and incubating at 37° C. with 2 mL of 0.05% Trypsin (Thermo-Fisher). Trypsin was then inactivated by adding complete growth medium and the cells were then replated in a T175 culture dish at the appropriate dilution. All cell lines were routinely tested for mycoplasma contamination. Tissue type and mutational status of each cell line can be found in Table B.
AlphaLISA® SureFire® Ultra™ p-ERK 1/2 (Thr202/Tyr204) analysis was conducted on cells plated in 100 μL of complete RPMI-1640 growth medium in 96-well flat-bottomed transparent dishes (Costar) at a density indicated in Table C. Cells were maintained overnight at 37° C. under 5% CO2 before treatment with compounds' dilution series for one hour. The cell density in cells/cm^2 corresponds to cell number divided by the area of one well of a 96-well plate ([…]).
In a dilution series 100 μL/well of test substance dilution prepared in complete RPMI-1640 growth media was added to the cells. The dilution series is selected so that ten concentrations cover a range from 10 μM to 0.33 nM. If necessary the initial concentration of 10 μM is increased to 100 μM or lowered to 1 μM (as in the case of A375 and H1666 cells, which are generally more sensitive to the compounds) and further dilution is carried out accordingly. The final concentration of DMSO in the assay is set at 0.5%.
After treatment, media was removed and cells were lysed in 50 μL of 1× AlphaScreen Ultra Lysis Buffer (Perkin Elmer). The AlphaLISA® SureFire® Ultra™ p-ERK 1/2 (Thr202/Tyr2O4) (PerkinElmer) reactions were performed with 5 μL of cell lysate according to the manufacturer's specifications in 384-well proxyplates (Perkin Elmer) followed by overnight incubation of the reactions at room temperature in a humidified chamber. After completion of the reactions, the signals were recorded on an EnVision plate reader (Perkin Elmer) using built in AlphaLISA® settings.
The effect of each compound dilution on the pERK signal was expressed in % inhibition and calculated as follows. An internal 100% inhibition control ([…] trametinib, cat #HY-10999; MedChem Express; CAS #871700-17-3) was included in each plate and used as a measure of pERK background. First, the value obtained for trametinib was subtracted from each data point. The average of DMSO (vehicle) controls (set as 0% inhibition) was established and used to calculate % inhibition: % inhibition=100*(1-((pERK signalcompound)/(pERK signalDMSO)))
The ability of each compound to inhibit pERK signal was expressed as an IC50 value obtained by plotting the inhibition values for each data point of a dilution series and fitting the obtained curves using a log(agonist) versus response-variable slope (four parameters) function using GraphPadPrism (V7.0) or Dotmatics Screening Ultra platform.
When present, paradoxical pERK induction is inferred from the negative % inhibition values observed in the pERK IC50 curves of a compound.

[1] = class symbol before the bracket

Compound	IC50 [1] [µM]	IC50 (class symbol) [µM]	HCT116 pERK Ymin % [%]
O=S(=O)(Nc1ccc(F)c(Nc2ncnc3ccc(-n4cc(CO)c5ccccc54)nc23)c1F)c1ccccc1Cl [Ex 88]	1 to 10		−6
O=S(=O)(Nc1ccc(F)c(Nc2ncnc3ccc(-n4cnc5c(CN6CCC6)cccc54)nc23)c1F)c1ccccc1Cl [Ex 218]	0.5 to 1		−6
O=S(=O)(Nc1ccc(F)c(Nc2ncnc3ccc(-n4cnc5c(CN6CCOCC6)cccc54)nc23)c1F)c1ccccc1Cl [Ex 220]	0.5 to 1		−1.7
CCN(C)Cc1cccc2c1ncn2-c1ccc2ncnc(Nc3c(F)ccc(NS(=O)(=O)c4ccccc4Cl)c3F)c2n1 [Ex 221]	0.5 to 1		−5
O=S(=O)(Nc1ccc(F)c(Nc2ncnc3ccc(-n4cnc5c(CN6CCCCC6)cccc54)nc23)c1F)c1ccccc1Cl [Ex 228]	0.5 to 1		2.0
O=S(=O)(Nc1ccc(F)c(Nc2ncnc3ccc(-n4cnc5c(CN6CCNCC6)cccc54)nc23)c1F)c1ccccc1Cl [Ex 230]	1 to 10		−3
Cc1cc([N+](=O)[O-])ccc1S(=O)(=O)Nc1ccc(F)c(Nc2ncnc3ccc(-n4cnc5c(N)cccc54)nc23)c1F [Ex 368]		1 to 10	
Cc1c(F)cccc1S(=O)(=O)Nc1ccc(F)c(Nc2ncnc3ccc(-n4cnc(CO)c4)nc23)c1F [Ex 379]		1 to 10	
O=S(=O)(Nc1ccc(F)c(Nc2ncnc3ccc(-n4cc(S(=O)(=O)N5CCN(C6CCCCC6)CC5)c5ccccc54)nc23)c1F)c1cccc(Cl)c1Cl [Ex 380]		1 to 10	
O=S(=O)(CC1CCCO1)c1cn(-c2ccc3ncnc(Nc4c(F)ccc(NS(=O)(=O)c5cccc(Cl)c5Cl)c4F)c3n2)c2ccccc12 (stereo not shown) [Ex 441]		0.5 to 1	

Now from value to molecule, other results behind:

IC50 [1] [µM]	IC50 (class symbol) [µM]	Compound	HCT116 pERK Ymin % [%]
	< 0.5	CN(CCc1ccccn1)C(=O)c1nn(-c2ccc3ncnc(Nc4c(F)ccc(NS(=O)(=O)c5cccc(Cl)c5Cl)c4F)c3n2)c2ccccc12 [Ex 370]	
	0.5 to 1	O=S(=O)(Nc1ccc(F)c(Nc2ncnc3ccc(-n4cc(S(=O)(=O)N5CCN(c6ccccn6)CC5)c5ccccc54)nc23)c1F)c1cccc(Cl)c1Cl [Ex 377]	
	< 0.5	O=S(=O)(Nc1ccc(F)c(Nc2ncnc3ccc(-n4cc(S(=O)(=O)N5CCN(CCOCCO)CC5)c5ccccc54)nc23)c1F)c1cccc(Cl)c1Cl [Ex 378]	
	< 0.5	CS(=O)(=O)c1cn(-c2ccc3ncnc(Nc4c(F)ccc(NS(=O)(=O)c5cccc(Cl)c5Cl)c4F)c3n2)c2ccccc12 [Ex 381]	
	< 0.5	CN(C)C1CCN(S(=O)(=O)c2cn(-c3ccc4ncnc(Nc5c(F)ccc(NS(=O)(=O)c6cccc(Cl)c6Cl)c5F)c4n3)c3ccccc23)CC1 [Ex 387]	
	< 0.5	CCN1CCN(S(=O)(=O)c2cn(-c3ccc4ncnc(Nc5c(F)ccc(NS(=O)(=O)c6cccc(Cl)c6Cl)c5F)c4n3)c3ccccc23)CC1 [Ex 388]	
	< 0.5	O=S(=O)(Nc1ccc(F)c(Nc2ncnc3ccc(-n4cc(S(=O)(=O)N5CCN(CCO)CC5)c5ccccc54)nc23)c1F)c1cccc(Cl)c1Cl [Ex 389]	
	< 0.5	Cc1c(F)cccc1S(=O)(=O)Nc1ccc(F)c(Nc2ncnc3ccc(-n4cc(S(=O)(=O)N5CCC(N(C)C)CC5)c5ccccc54)nc23)c1F [Ex 395]	
	< 0.5	CCN1CCN(S(=O)(=O)c2cn(-c3ccc4ncnc(Nc5c(F)ccc(NS(=O)(=O)c6cccc(F)c6C)c5F)c4n3)c3ccccc23)CC1 [Ex 396]	
	< 0.5	Cc1c(F)cccc1S(=O)(=O)Nc1ccc(F)c(Nc2ncnc3ccc(-n4cc(S(=O)(=O)N5CCN(CCO)CC5)c5ccccc54)nc23)c1F [Ex 397]	
	< 0.5	CN1CCCN(S(=O)(=O)c2cn(-c3ccc4ncnc(Nc5c(F)ccc(NS(=O)(=O)c6cccc(Cl)c6Cl)c5F)c4n3)c3ccccc23)CC1 [Ex 436]	
	< 0.5	O=S(=O)(CC1CCOCC1)c1cn(-c2ccc3ncnc(Nc4c(F)ccc(NS(=O)(=O)c5cccc(Cl)c5Cl)c4F)c3n2)c2ccccc12 [Ex 442]	
